Test results reported in patent US9499538B2, “Estrogen receptor modulators and uses thereof” (Seragon Pharmaceuticals, Inc., priority 2012, dated 2016).

Tests used:
[1] = system: MCF-7 cells; test: Breast Cancer Cell Viability Assays (MCF-7, CellTiter-Glo); type: cell-based; settings: 5 days' compound exposure; for IC50: Homo sapiens, MCF7, 120 h
In short: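 MCF-7 cells (320/well, RPMI with 10% FBS) exposed for 5 days to an eleven-point semilog series, 0.3–0.000003 μM final. Viability read by CellTiter-Glo luminescence, expressed as background-corrected percent of untreated cells.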

[2] = target: T1, ER-α in MCF-7 cells (Homo sapiens, UniProt P03372); test: Breast Cancer Cell ER-α In Cell Western Assay (SP1); type: cell-based; settings: 4 or 24 hr post compound addition; for Emax: MCF7, SP1 antibody, read-out: ER-α In Cell Western Assay (SP1) Max Response; for DC50: SP1 antibody, read-out: ER-α In Cell Western Assay (SP1) IC50
T1 construct: endogenous in cells; host or cells: MCF-7
T1 sequence (P03372 1-595): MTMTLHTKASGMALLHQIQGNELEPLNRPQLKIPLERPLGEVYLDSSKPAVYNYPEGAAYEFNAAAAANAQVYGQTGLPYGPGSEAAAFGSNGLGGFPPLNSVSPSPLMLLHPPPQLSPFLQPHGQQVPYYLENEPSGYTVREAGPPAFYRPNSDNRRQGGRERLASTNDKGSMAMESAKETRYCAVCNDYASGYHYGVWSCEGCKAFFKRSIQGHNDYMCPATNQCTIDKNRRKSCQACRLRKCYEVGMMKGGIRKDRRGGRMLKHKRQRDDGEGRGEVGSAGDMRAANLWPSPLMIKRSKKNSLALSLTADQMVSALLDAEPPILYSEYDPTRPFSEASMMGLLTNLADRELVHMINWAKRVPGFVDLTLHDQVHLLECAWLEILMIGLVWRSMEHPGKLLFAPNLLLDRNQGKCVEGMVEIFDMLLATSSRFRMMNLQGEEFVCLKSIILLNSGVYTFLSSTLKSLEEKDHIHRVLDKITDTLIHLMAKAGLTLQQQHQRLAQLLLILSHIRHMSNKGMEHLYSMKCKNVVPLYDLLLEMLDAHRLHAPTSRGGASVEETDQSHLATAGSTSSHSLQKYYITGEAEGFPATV
In short: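 MCF-7 cells in charcoal-stripped FBS medium, treated with 11-point semilog dilutions (0.3–0.000003 μM final) for 4 or 24 h. Fixed cells immunostained with SP1 antibody (800 nm) and DRAQ5 DNA (700 nm); ER/DNA ratio expressed as % of untreated cells.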

SMILES: Cc1cc(C#N)ccc1/C(=C(\c1ccc(/C=C/C(=O)O)cc1)c1ccc2[nH]ncc2c1)C1CCC1 [Example 55, (E)-3-(4-((E)-2-(4-Cyano-2-methylphenyl)-2-cyclobutyl-1-(1H-indazol-5-yl)vinyl)phenyl)acrylic acid]
- MCF7 Viability Assay Max Response [1]: ++ (++ = a single % value ≧ 40%)
- IC50 [1]: ≤ 100 nM
- Emax [2]: ≥ 40%
- DC50 [2]: ≤ 100 nM

SMILES: O=C(O)/C=C/c1ccc(/C(=C(\c2ccccc2)C2CCC2)c2ccc3[nH]nc(F)c3c2)nc1 [Example 160, (E)-3-(6-((Z)-2-Cyclobutyl-1-(3-fluoro-1H-indazol-5-yl)-2-phenylvinyl)pyridin-3-yl)acrylic acid]
- MCF7 Viability Assay Max Response [1]: ++ (++ = a single % value ≧ 40%)
- IC50 [1]: ≤ 100 nM
- Emax [2]: ≥ 40%
- DC50 [2]: ≤ 100 nM

SMILES: Cc1cncc(/C(=C(\c2ccc(/C=C/C(=O)O)cc2)c2ccc3[nH]nc(F)c3c2)C2CCC2)c1 [Example 129, (E)-3-(4-((E)-2-Cyclobutyl-1-(3-fluoro-1H-indazol-5-yl)-2-(5-methylpyridin-3-yl)vinyl)phenyl)acrylic acid]
- MCF7 Viability Assay Max Response [1]: ++ (++ = a single % value ≧ 40%)
- IC50 [1]: ≤ 100 nM
- Emax [2]: ≥ 40%
- DC50 [2]: ≤ 100 nM

SMILES: COc1ccc(/C(=C(\c2ccc(/C=C/c3noc(=O)[nH]3)cc2)c2ccc3[nH]nc(F)c3c2)C2CCC2)c(Cl)c1 [Example 276, 3-((E)-4-((E)-2-(2-Chloro-4-methoxyphenyl)-2-cyclobutyl-1-(3-fluoro-1H-indazol-5-yl)vinyl)styryl)-1,2,4-oxadiazol-5(4H)-one]
- MCF7 Viability Assay Max Response [1]: ++ (++ = a single % value ≧ 40%)
- IC50 [1]: ≤ 100 nM
- Emax [2]: ≥ 40%
- DC50 [2]: ≤ 100 nM

SMILES: COc1c(/C(=C(/c2ccccc2)C2CCC2)c2ccc(/C=C/C(=O)O)cc2)ccc2[nH]ncc12 [Example 9, (E)-3-(4-((E)-2-Cyclobutyl-1-(4-methoxy-1H-indazol-5-yl)-2-phenylvinyl)phenyl)acrylic acid]
- MCF7 Viability Assay Max Response [1]: ++ (++ = a single % value ≧ 40%)
- IC50 [1]: ≤ 100 nM
- Emax [2]: ≥ 40%
- DC50 [2]: ≤ 100 nM

SMILES: Fc1n[nH]c2ccc(/C(=C(/c3ccccc3)C3CCC3)c3ccc(/C=C/c4nnco4)cc3)cc12 [Example 208, 2-((E)-4-((E)-2-Cyclobutyl-1-(3-fluoro-1H-indazol-5-yl)-2-phenylvinyl)styryl)-1,3,4-oxadiazole]
- MCF7 Viability Assay Max Response [1]: ++ (++ = a single % value ≧ 40%)
- IC50 [1]: ≤ 100 nM
- Emax [2]: ≥ 40%
- DC50 [2]: ≤ 100 nM

SMILES: COc1ccc(/C(=C(\c2ccc(/C=C/C(=O)O)cc2)c2ccc3[nH]nc(F)c3c2)C2CCC2)c(Cl)c1 [Example 67, (E)-3-(4-((E)-2-(2-Chloro-4-methoxyphenyl)-2-cyclobutyl-1-(3-fluoro-1H-indazol-5-yl)vinyl)phenyl)acrylic acid]
- MCF7 Viability Assay Max Response [1]: ++ (++ = a single % value ≧ 40%)
- IC50 [1]: ≤ 100 nM
- Emax [2]: ≥ 40%
- DC50 [2]: ≤ 100 nM

SMILES: Fc1ccc(/C(=C(\c2ccc(/C=C/c3nnn[nH]3)cc2)c2ccc3scnc3c2)C2CCC2)c(Cl)c1 [Example 175, 5-((E)-1-(4-((E)-2-(2H-Tetrazol-5-yl)vinyl)phenyl)-2-(2-chloro-4-fluorophenyl)-2-cyclobutylvinyl)benzo[d]thiazole]
- MCF7 Viability Assay Max Response [1]: ++ (++ = a single % value ≧ 40%)
- IC50 [1]: ≤ 100 nM
- Emax [2]: ≥ 40%
- DC50 [2]: ≤ 100 nM

SMILES: N#Cc1cc(Cl)ccc1/C(=C(\c1ccc(/C=C/C(=O)O)cc1)c1ccc2scnc2c1)C1CCC1 [Example 219, (E)-3-(4-((E)-1-(Benzo[d]thiazol-5-yl)-2-(4-chloro-2-cyanophenyl)-2-cyclobutylvinyl)phenyl)acrylic acid]
- MCF7 Viability Assay Max Response [1]: ++ (++ = a single % value ≧ 40%)
- IC50 [1]: ≤ 100 nM
- Emax [2]: ≥ 40%
- DC50 [2]: ≤ 100 nM

SMILES: Fc1n[nH]c2ccc(/C(=C(/c3ccccc3)C3CCC3)c3ccc(/C=C/c4cccnc4)cc3)cc12 [Example 205, 5-((E)-2-Cyclobutyl-2-phenyl-1-(4-((E)-2-(pyridin-3-yl)vinyl)phenyl)vinyl)-3-fluoro-1H-indazole]
- MCF7 Viability Assay Max Response [1]: + (+ = a single % value < 40%)
- IC50 [1]: > 100 nM
- Emax [2]: ≥ 40%
- DC50 [2]: ≤ 100 nM

SMILES: N#Cc1cscc1/C(=C(\c1ccc(/C=C/C(=O)O)cc1)c1ccc2[nH]nc(F)c2c1)C1CCC1 [Example 82, (E)-3-(4-((E)-2-(4-Cyanothiophen-3-yl)-2-cyclobutyl-1-(3-fluoro-1H-indazol-5-yl)vinyl)phenyl)acrylic acid]
- MCF7 Viability Assay Max Response [1]: ++ (++ = a single % value ≧ 40%)
- IC50 [1]: ≤ 100 nM
- Emax [2]: ≥ 40%
- DC50 [2]: ≤ 100 nM

SMILES: O=C(/C=C/c1ccc(/C(=C(\c2ccccc2)C2CCC2)c2ccc3[nH]nnc3c2)cc1)NCCO [Example 182, (E)-3-(4-((E)-1-(1H-Benzo[d][1,2,3]triazol-5-yl)-2-cyclobutyl-2-phenylvinyl)phenyl)-N-(2-hydroxyethyl)acrylamide]
- MCF7 Viability Assay Max Response [1]: ++ (++ = a single % value ≧ 40%)
- IC50 [1]: ≤ 100 nM
- Emax [2]: ≥ 40%
- DC50 [2]: ≤ 100 nM

SMILES: N#Cc1ccc(/C(=C(\c2ccc(/C=C/C(=O)O)cc2)c2ccc3scnc3c2)C2CCC2)c(F)c1 [Example 95, (E)-3-(4-((E)-1-(Benzo[d]thiazol-5-yl)-2-(4-cyano-2-fluorophenyl)-2-cyclobutylvinyl)phenyl)acrylic acid]
- MCF7 Viability Assay Max Response [1]: ++ (++ = a single % value ≧ 40%)
- IC50 [1]: ≤ 100 nM
- Emax [2]: ≥ 40%
- DC50 [2]: ≤ 100 nM

SMILES: Fc1n[nH]c2ccc(/C(=C(/c3ccccc3)C3CCC3)c3ccc(/C=C/c4cnc[nH]4)cc3)cc12 [Example 39, 5-((E)-1-(4-((E)-2-(1H-Imidazol-5-yl)vinyl)phenyl)-2-cyclobutyl-2-phenylvinyl)-3-fluoro-1H-indazole]
- MCF7 Viability Assay Max Response [1]: ++ (++ = a single % value ≧ 40%)
- IC50 [1]: ≤ 100 nM
- Emax [2]: ≥ 40%
- DC50 [2]: ≤ 100 nM

SMILES: N#Cc1ccc(/C(=C(\c2ccc(/C=C/C(=O)O)cc2)c2ccc3nccn3c2)C2CCC2)c(Cl)c1 [Example 226, (E)-3-(4-((E)-2-(2-Chloro-4-cyanophenyl)-2-cyclobutyl-1-(imidazo[1,2-a]pyridin-6-yl)vinyl)phenyl)acrylic acid]
- MCF7 Viability Assay Max Response [1]: ++ (++ = a single % value ≧ 40%)
- IC50 [1]: ≤ 100 nM
- Emax [2]: ≥ 40%
- DC50 [2]: ≤ 100 nM

SMILES: N#Cc1n[nH]c2ccc(/C(=C(/c3ccccc3)C3CCC3)c3ccc(/C=C/C(=O)O)cc3)cc12 [Example 148, (E)-3-(4-((E)-1-(3-Cyano-1H-indazol-5-yl)-2-cyclobutyl-2-phenylvinyl)phenyl)acrylic acid]
- MCF7 Viability Assay Max Response [1]: ++ (++ = a single % value ≧ 40%)
- IC50 [1]: ≤ 100 nM
- Emax [2]: ≥ 40%
- DC50 [2]: ≤ 100 nM

SMILES: O=C(/C=C/c1ccc(/C(=C(\c2ccccc2)C2CCC2)c2cccc3[nH]ncc23)cc1)NCCO [Example 183, (E)-3-(4-((E)-2-Cyclobutyl-1-(1H-indazol-4-yl)-2-phenylvinyl)phenyl)-N-(2-hydroxyethyl)acrylamide]
- MCF7 Viability Assay Max Response [1]: ++ (++ = a single % value ≧ 40%)
- IC50 [1]: ≤ 100 nM
- Emax [2]: ≥ 40%
- DC50 [2]: ≤ 100 nM

SMILES: CC/C(=C(/c1ccc(/C=C/C(=O)O)cc1)c1ccc2nn(CCO)cc2c1)c1ccc(F)cc1Cl [Example 200, (E)-3-(4-((E)-2-(2-Chloro-4-fluorophenyl)-1-(2-(2-hydroxyethyl)-2H-indazol-5-yl)but-1-en-1-yl)phenyl)acrylic acid]
- MCF7 Viability Assay Max Response [1]: ++ (++ = a single % value ≧ 40%)
- IC50 [1]: > 100 nM
- Emax [2]: ≥ 40%
- DC50 [2]: ≤ 100 nM

SMILES: COc1ccc(/C(=C(\c2ccc(/C=C/C(=O)O)cc2)c2ccc3[nH]nc(F)c3c2)C2CC2)c(Cl)c1 [Example 114, (E)-3-(4-((E)-2-(2-Chloro-4-methoxyphenyl)-2-cyclopropyl-1-(3-fluoro-1H-indazol-5-yl)vinyl)phenyl)acrylic acid]
- MCF7 Viability Assay Max Response [1]: ++ (++ = a single % value ≧ 40%)
- IC50 [1]: ≤ 100 nM
- Emax [2]: ≥ 40%
- DC50 [2]: ≤ 100 nM

SMILES: O=C(O)/C=C/c1ccc(/C(=C(\c2ccc(F)cc2Cl)C2CCC2)c2ccc3[nH]nc(C(F)(F)F)c3c2)cc1 [Example 252, (E)-3-(4-((E)-2-(2-Chloro-4-fluorophenyl)-2-cyclobutyl-1-(3-(trifluoromethyl)-1H-indazol-5-yl)vinyl)phenyl)acrylic acid]
- MCF7 Viability Assay Max Response [1]: ++ (++ = a single % value ≧ 40%)
- IC50 [1]: > 100 nM
- Emax [2]: ≥ 40%
- DC50 [2]: ≤ 100 nM
